Test results published in patent US8426441B2, “Inhibitors of bruton's tyrosine kinase” (Roche Palo Alto LLC, priority 2007, dated 2013).

With CNC(=O)Nc1cc(-c2cccc(NC(=O)c3ccc([Si](C)(C)C)cc3)c2C)cn2ccnc12 the melting point was 143.5 to 154.4 °C. Work on C1=C(c2cc(Nc3ccccn3)c3nccn3n2)CCCC1 [Example I-3, (6-Cyclohex-1-enyl-imidazo[1,2-b]pyridazin-8-yl)-pyridin-2-yl-amine] yielded a melting point of 160.7 to 161.5 °C. Work on Cc1c(NC(=O)c2ccc(C(C)(C)C)cc2)cccc1-c1cc(NC(=O)NC(C)C)c2nccn2n1 [Example I-6, 4-tert-Butyl-N-{3-[8-(3-isopropyl-ureido)-imidazo[1,2-b]pyridazin-6-yl]-2-methyl-phenyl}-benzamide] yielded a melting point of 178 to 180 °C. Cc1c(NC(=O)c2ccc(C(C)(C)C)cc2)cccc1-c1cc(NC(=O)NC(C)(C)C)c2nccn2n1 [Example I-10, 4-tert-Butyl-N-{3-[8-(3-tert-butyl-ureido)-imidazo[1,2-b]pyridazin-6-yl]-2-methyl-phenyl}-benzamide] showed a melting point of 191 to 193 °C. With Cc1c(NC(=O)c2ccc(C(C)(C)C)cc2)cccc1-c1cc(Nc2nccs2)c2nccn2n1 [Example I-12, 4-tert-Butyl-N-{2-methyl-3-[8-(thiazol-2-ylamino)-imidazo[1,2-b]pyridazin-6-yl]-phenyl}-benzamide] the melting point was 178 to 179 °C. CNC(=O)Nc1cc(-c2ccccc2)nn2ccnc12 [Example I-13, 1-Methyl-3-(6-phenyl-imidazo[1,2-b]pyridazin-8-yl)-urea] showed a melting point of 192 to 193 °C. With CNC(=O)Nc1cc(-c2cccc(CC(=O)N3Cc4ccccc4C3)c2)nn2ccnc12 [Example I-14, 1-(6-{3-[2-(1,3-Dihydro-isoindol-2-yl)-2-oxo-ethyl]-phenyl}-imidazo[1,2-b]pyridazin-8-yl)-3-methyl-urea] the melting point was 244 to 245 °C. With CCOC(=O)c1ccc(Nc2cc(-c3ccccc3)cn3ccnc23)nc1 [Example I-47, 6-(6-Phenyl-imidazo[1,2-a]pyridin-8-ylamino)-nicotinic acid ethyl ester] the melting point was 141.5 to 142.5 °C. In the case of CCC(=O)Nc1cc(-c2cccc(NC(=O)c3ccc(C(C)(C)C)cc3)c2C)cn2ccnc12 [Example I-54, 4-tert-Butyl-N-[2-methyl-3-(8-propionylamino-imidazo[1,2-a]pyridin-6-yl)-phenyl]-benzamide], the melting point is reported as 99 to 100 °C. In the case of CC(=O)Nc1cc(-c2cccc(NC(=O)c3ccc(C(C)(C)C)cc3)c2C)cn2ccnc12 [Example I-57, N-[3-(8-Acetylamino-imidazo[1,2-a]pyridin-6-yl)-2-methyl-phenyl]-4-tert-butyl-benzamide], the melting point is reported as 132 to 133 °C. With CNC(=O)Nc1cc(-c2ccccc2)cn2ccnc12 [Example I-61, 1-Methyl-3-(6-phenyl-imidazo[1,2-a]pyridin-8-yl)-urea] the melting point was 69 to 70 °C. For Cc1c(NC(=O)c2ccc(N(C)C)cc2)cccc1-c1cc(NC(=O)NCCO)c2nccn2c1 [Example I-64, 4-Dimethylamino-N-(3-{8-[3-(2-hydroxy-ethyl)-ureido]-imidazo[1,2-a]pyridin-6-yl}-2-methyl-phenyl)-benzamide], the melting point was 153.7 to 164.4 °C. Work on Cc1c(NC(=O)c2ccc(C(C)(C)C)cc2)cccc1-c1cc(NC(N)=O)c2nccn2c1 [Example I-67, 4-tert-Butyl-N-[2-methyl-3-(8-ureido-imidazo[1,2-a]pyridin-6-yl)-phenyl]-benzamide] yielded a melting point of 185.4 to 215 °C. Work on Cc1c(NC(=O)c2ccc(N(C)C)cc2)cccc1-c1cc(NC(=O)NCCCN2CCOCC2)c2nccn2c1 [Example I-68, 4-Dimethylamino-N-(2-methyl-3-{8-[3-(3-morpholin-4-yl-propyl)-ureido]-imidazo[1,2-a]pyridin-6-yl}-phenyl)-benzamide] yielded a melting point of 190.2 to 209.7 °C. Cc1c(NC(=O)c2ccc(N(C)C)cc2)cccc1-c1cc(NC(=O)NCCCO)c2nccn2c1 [Example I-69, 4-Dimethylamino-N-(3-{8-[3-(3-hydroxy-propyl)-ureido]-imidazo[1,2-a]pyridin-6-yl}-2-methyl-phenyl)-benzamide] gave a melting point of 144.1 to 188.6 °C. Cc1c(NC(=O)N2CC(OC(C)(C)C)C2)cccc1-c1cc(NC(=O)NCCCN(C)C)c2nccn2c1 [Example I-70, 3-tert-Butoxy-azetidine-1-carboxylic acid {3-{8-[3-(3-dimethylamino-propyl)-ureido]-imidazo[1,2-a]pyridin-6-yl}-2-methyl-phenyl)-amide] gave a melting point of 129 to 130 °C. In the case of Cc1c(NC(=O)c2ccc(C(C)(C)C)cc2)cccc1-c1cc(NC(=O)NCCO)c2nccn2c1 [Example I-71, 4-tert-Butyl-N-(3-{8-[3-(2-hydroxy-ethyl)-ureido]-imidazo[1,2-a]pyridin-6-yl}-2-methyl-phenyl)-benzamide], the melting point is reported as 176 to 177 °C. In the case of Cc1c(NC(=O)c2ccc(N(C)C)cc2)cccc1-c1cc(NC(=O)NCCCN2CCN(C)CC2)c2nccn2c1 [Example I-72, 4-Dimethylamino-N-[2-methyl-3-(8-{3-[3-(4-methyl-piperazin-1-yl)-propyl]-ureido}-imidazo[1,2-a]pyridin-6-yl)-phenyl]-benzamide], the melting point is reported as 144 to 145 °C. Work on CNC(=O)Nc1cc(-c2cccc(NC(=O)N3CC(OC(C)(C)C)C3)c2C)cn2ccnc12 [Example I-75, 3-tert-Butoxy-azetidine-1-carboxylic acid {2-methyl-3-[8-(3-methyl-ureido)-imidazo[1,2-a]pyridin-6-yl]-phenyl}-amide] yielded a melting point of 158 to 161 °C. For CNC(=O)Nc1cc(-c2cccc(NC(=O)c3ccc(OC)cc3)c2C)cn2ccnc12 [Example I-78, 4-Methoxy-N-{2-methyl-3-[8-(3-methyl-ureido)-imidazo[1,2-a]pyridin-6-yl]-phenyl}-benzamide], the melting point was 147.6 to 152.9 °C. In the case of CNC(=O)Nc1cc(-c2cccc(NC(=O)c3ccc(OC(F)(F)F)cc3)c2C)cn2ccnc12 [Example I-79, N-{2-Methyl-3-[8-(3-methyl-ureido)-imidazo[1,2-a]pyridin-6-yl]-phenyl}-4-trifluoromethoxy-benzamide], the melting point is reported as 148.4 to 153.2 °C. With CNC(=O)Nc1cc(-c2cccc(NC(=O)c3ccc(OC(C)C)cc3)c2C)cn2ccnc12 [Example I-81, 4-Isopropoxy-N-[2-methyl-3-[8-(3-methyl-ureido)-imidazo[1,2-a]pyridin-6-yl]-phenyl}-benzamide] the melting point was 147.1 to 151.7 °C. CC(O)(C#CCNC(=O)Cc1cccc(-c2cc(Nc3ccc(C(=O)N4CCOCC4)cn3)c3nccn3c2)c1)C(F)(F)F (stereo not drawn) [Example I-84, 2-(3-{8-[5-(Morpholine-4-carbonyl)-pyridin-2-ylamino]-imidazo[1,2-a]pyridin-6-yl}-phenyl)-N-(5,5,5-trifluoro-4-hydroxy-4-methyl-pent-2-ynyl)-acetamide] gave a melting point of 136.8 to 147.5 °C. O=C(Cc1cccc(-c2cc(Nc3ccc(C(=O)N4CCOCC4)cn3)c3nccn3c2)c1)N1CC(OC(C(F)(F)F)C(F)(F)F)C1 [Example I-90, 2-(3-{8-[5-(Morpholine-4-carbonyl)-pyridin-2-ylamino]-imidazo[1,2-a]pyridin-6-yl}-phenyl)-1-[3-(2,2,2-trifluoro-1-trifluoromethyl-ethoxy)-azetidin-1-yl]-ethanone] showed a melting point of 137 to 138 °C. Compound Cc1c(NC(=O)c2ccc(C(C)(C)C)cc2)cccc1-c1cc(NC(=O)NCCCN2CCN(C)CC2)c2nccn2c1 [Example I-94, 4-tert-Butyl-N-[2-methyl-3-(8-{3-[3-(4-methyl-piperazin-1-yl)-propyl]-ureido}-imidazo[1,2-a]pyridin-6-yl)-phenyl]-benzamide] has a melting point of 167 to 168 °C. Cc1c(NC(=O)c2ccc(C(O)(C(F)(F)F)C(F)(F)F)cc2)cccc1-c1cc(NC(=O)NCCCN(C)C)c2nccn2c1 [Example I-98, N-(3-{8-[3-(3-Dimethylamino-propyl)-ureido]-imidazo[1,2-a]pyridin-6-yl}-2-methyl-phenyl)-4-(2,2,2-trifluoro-1-hydroxy-1-trifluoromethyl-ethyl)-benzamide] gave a melting point of 198 to 200 °C. For CNC(=O)Nc1cc(-c2cccc(CC(=O)NCC#CC(C)(C)C)c2)cn2ccnc12 [Example I-99, N-(4,4-Dimethyl-pent-2-ynyl)-2-{3-[8-(3-methyl-ureido)-imidazo[1,2-a]pyridin-6-yl]-phenyl}-acetamide], the melting point was 129 to 130 °C.
